Results: ChEMBL document CHEMBL1201862, “PubChem BioAssay data set” (2004)
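96-well plates; 48 h exposure; 5 concentrations. Endpoints by linear interpolation between flanking doses. Not reached: highest tested concentration assigned. At the GI50, growth is halved.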 Activity calls are given as the source filed them. Cut-off read from the data, not from the text of the source: active = GI50 up to about 1.1 µM and inactive = higher.

Key:
Experiment in all cases: NCI anticancer screen, dose series, 48 h
[1] = system: CAKI-1
[2] = system: CCRF-CEM
[3] = system: DU-145
[4] = system: HOP-62
[5] = system: KM12
[6] = system: MDA-MB-231
[7] = system: MOLT-4
[8] = system: OVCAR-3
[9] = system: OVCAR-4
[10] = system: OVCAR-8
[11] = system: SF-295
[12] = system: SK-MEL-2
[13] = system: SW-620
[14] = system: T47D
[15] = system: TK-10
[16] = system: UACC-257
[17] = system: UO-31
[18] = system: SK-MEL-28
[19] = system: U-251
[20] = system: K562

| Compound | GI50 [1] | GI50 [2] | GI50 [3] | GI50 [4] | GI50 [5] | GI50 [6] | GI50 [7] | GI50 [8] | GI50 [9] | GI50 [10] | GI50 [11] | GI50 [12] | GI50 [13] | GI50 [14] | GI50 [15] | GI50 [16] | GI50 [17] | GI50 [18] | GI50 [19] | GI50 [20] |
| --- | --- | --- | --- | --- | --- | --- | --- | --- | --- | --- | --- | --- | --- | --- | --- | --- | --- | --- | --- | --- |
| O=C1NC(=O)c2ccccc2/C1=C/c1ccc2c(c1)OCO2 | 24.5 µM (inactive) | 5.92 µM (inactive) | 40.3 µM (inactive) | 11.2 µM (inactive) | 17 µM (inactive) | 12.3 µM (inactive) | 11.5 µM (inactive) | 5.37 µM (inactive) | 49.1 µM (inactive) | 28 µM (inactive) | 24.5 µM (inactive) | 24.6 µM (inactive) | 30.5 µM (inactive) | > 100 µM (inactive) | 55.7 µM (inactive) | 21.4 µM (inactive) | 17.2 µM (inactive) |  |  |  |
| CNC(=O)c1cc(NC(=O)N(CCC#N)CCN(C(=O)N[C@@H](Cc2ccccc2)C(=O)N[C@@H](CC(C)C)C(=O)NC)c2ccccc2)ccc1OC | > 81.1 µM (inactive) | > 66.1 µM (inactive) | > 54.8 µM (inactive) | > 100 µM (inactive) | > 62.1 µM (inactive) | > 38.3 µM (inactive) | 49.4 µM (inactive) | > 65.8 µM (inactive) | > 100 µM (inactive) | > 91.2 µM (inactive) | > 79.3 µM (inactive) | 31.8 µM (inactive) | > 100 µM (inactive) | > 47.6 µM (inactive) | > 72.6 µM (inactive) | 19.5 µM (inactive) | > 52 µM (inactive) | 29.3 µM (inactive) | > 100 µM (inactive) |  |
| c1ccc(Cn2c(-c3ccc(-c4ccccc4)cc3)cc3ccccc32)cc1 | > 100 µM (inactive) | > 100 µM (inactive) | > 100 µM (inactive) | > 100 µM (inactive) | > 100 µM (inactive) | > 100 µM (inactive) | > 100 µM (inactive) | > 100 µM (inactive) | > 100 µM (inactive) | > 100 µM (inactive) | > 100 µM (inactive) | 94.6 µM (inactive) | > 100 µM (inactive) | > 100 µM (inactive) | > 100 µM (inactive) | > 100 µM (inactive) | > 100 µM (inactive) | > 100 µM (inactive) | > 100 µM (inactive) |  |
| O=C1C=CC(=O)N1n1c(-c2ccccc2)n[nH]c1=O | > 100 µM (inactive) | > 100 µM (inactive) | > 100 µM (inactive) | > 100 µM (inactive) |  | > 100 µM (inactive) | > 100 µM (inactive) | > 100 µM (inactive) | > 100 µM (inactive) | > 100 µM (inactive) | > 100 µM (inactive) | > 100 µM (inactive) |  | > 100 µM (inactive) | > 100 µM (inactive) | > 100 µM (inactive) |  |  | > 100 µM (inactive) | > 100 µM (inactive) |
| O=C(Nc1ccccc1)c1cc2c(cc1Cl)SC(NNCCO)=NS2(=O)=O | > 100 µM (inactive) | > 100 µM (inactive) | > 100 µM (inactive) | > 100 µM (inactive) | > 100 µM (inactive) | > 100 µM (inactive) | > 100 µM (inactive) |  | > 100 µM (inactive) | > 100 µM (inactive) | > 100 µM (inactive) | > 100 µM (inactive) | > 100 µM (inactive) | > 100 µM (inactive) | > 100 µM (inactive) | > 100 µM (inactive) | > 100 µM (inactive) | > 100 µM (inactive) | > 100 µM (inactive) | > 100 µM (inactive) |
| O=C(O)Cn1cc([N+](=O)[O-])c(=O)c2ccccc21 | > 100 µM (inactive) | > 100 µM (inactive) | 57 µM (inactive) | > 100 µM (inactive) | > 100 µM (inactive) | 18.8 µM (inactive) | > 100 µM (inactive) | > 100 µM (inactive) |  | > 100 µM (inactive) | > 100 µM (inactive) | > 100 µM (inactive) | > 100 µM (inactive) | 18.8 µM (inactive) | > 100 µM (inactive) | > 100 µM (inactive) | > 100 µM (inactive) | > 100 µM (inactive) | > 100 µM (inactive) | > 100 µM (inactive) |
| N#Cc1ccc(Nc2nc3[nH]cnc3c(=O)[nH]2)cc1 | > 100 µM (inactive) | > 100 µM (inactive) | > 100 µM (inactive) | > 100 µM (inactive) | > 100 µM (inactive) | > 100 µM (inactive) | > 100 µM (inactive) | > 100 µM (inactive) | > 100 µM (inactive) | > 100 µM (inactive) | > 100 µM (inactive) | > 100 µM (inactive) | > 100 µM (inactive) | > 100 µM (inactive) | > 100 µM (inactive) | > 100 µM (inactive) | > 100 µM (inactive) | > 100 µM (inactive) | > 100 µM (inactive) |  |
| Cc1nc(-c2cc3cc([N+](=O)[O-])ccc3oc2=O)cs1 | > 100 µM (inactive) | 32.9 µM (inactive) | > 100 µM (inactive) | > 100 µM (inactive) | > 100 µM (inactive) | 80.7 µM (inactive) | > 100 µM (inactive) |  | > 100 µM (inactive) |  | > 100 µM (inactive) | > 100 µM (inactive) | > 100 µM (inactive) | > 100 µM (inactive) | > 100 µM (inactive) | > 100 µM (inactive) | > 100 µM (inactive) | > 100 µM (inactive) | > 100 µM (inactive) | 71.8 µM (inactive) |
| Cc1ccc2c(O)cc(-c3sc4ccccc4c3C)nc2n1 | 21.6 µM (inactive) | 23.9 µM (inactive) | 22.9 µM (inactive) | 25.1 µM (inactive) | 15.7 µM (inactive) | 49.5 µM (inactive) | 26.1 µM (inactive) |  | 19.1 µM (inactive) | 25.2 µM (inactive) | 17.1 µM (inactive) | 37 µM (inactive) |  | 14.5 µM (inactive) | 46.6 µM (inactive) | 32.3 µM (inactive) | 0.661 µM (active) | 19.1 µM (inactive) |  | 27.1 µM (inactive) |
| O=C(/C=C/c1ccsc1)c1ccc(Cl)s1 | > 100 µM (inactive) | 28.4 µM (inactive) | > 100 µM (inactive) | > 100 µM (inactive) | 19.5 µM (inactive) | > 100 µM (inactive) | 20.6 µM (inactive) |  | > 100 µM (inactive) | > 100 µM (inactive) | 59.4 µM (inactive) | > 100 µM (inactive) | 24.7 µM (inactive) | > 100 µM (inactive) | > 100 µM (inactive) | > 100 µM (inactive) | 78.9 µM (inactive) | 55.1 µM (inactive) | > 100 µM (inactive) | > 10 µM (inactive) |
| [O-][n+]1cn[n+]([O-])c2ccccc21 | 18.9 µM (inactive) | 3.46 µM (inactive) | 63.1 µM (inactive) | 17.9 µM (inactive) | 19.5 µM (inactive) | 14.3 µM (inactive) | 2.91 µM (inactive) |  |  | 18.9 µM (inactive) | 30.3 µM (inactive) | 27.4 µM (inactive) | 6.82 µM (inactive) | 5.97 µM (inactive) | > 100 µM (inactive) | 16.9 µM (inactive) | 28.3 µM (inactive) | > 100 µM (inactive) | 32.4 µM (inactive) | 6.95 µM (inactive) |
| CC(=O)Oc1ccc2c(c1)CC[C@@H]1C2CC[C@]2(C)C(=O)NC(=O)CC12 (some centres undefined) | > 100 µM (inactive) | > 100 µM (inactive) | > 100 µM (inactive) | > 100 µM (inactive) | > 100 µM (inactive) | > 100 µM (inactive) | > 100 µM (inactive) | > 100 µM (inactive) | > 100 µM (inactive) | > 100 µM (inactive) | > 100 µM (inactive) |  | > 100 µM (inactive) | > 100 µM (inactive) | > 100 µM (inactive) | > 100 µM (inactive) | > 100 µM (inactive) | > 100 µM (inactive) | > 100 µM (inactive) | > 100 µM (inactive) |
| CCCCCCNC(=O)c1cnc(Cl)cn1 | 1.17 µM (inactive) | 13.7 µM (inactive) | 16.1 µM (inactive) | 16.1 µM (inactive) | 15.9 µM (inactive) | 16.7 µM (inactive) | 4.82 µM (inactive) |  | 20.6 µM (inactive) | 12.4 µM (inactive) | 18.1 µM (inactive) | 14.7 µM (inactive) | 15.1 µM (inactive) | 20 µM (inactive) | 22.4 µM (inactive) | 14.3 µM (inactive) | 1.85 µM (inactive) | 24 µM (inactive) | 11.5 µM (inactive) | 13 µM (inactive) |
| N/N=c1\[nH]c2ccccc2o1 | > 100 µM (inactive) | 31.7 µM (inactive) | > 100 µM (inactive) |  | > 100 µM (inactive) | > 100 µM (inactive) | 24.2 µM (inactive) |  | 46.5 µM (inactive) | 64.6 µM (inactive) |  | > 100 µM (inactive) | > 100 µM (inactive) | 30.1 µM (inactive) | > 100 µM (inactive) | > 100 µM (inactive) | 93.5 µM (inactive) | > 100 µM (inactive) | > 100 µM (inactive) | 89.7 µM (inactive) |
| N#CCCN(CCC#N)c1ccc(C(=N/c2ccc(F)cc2)/N=N/c2ccc(Cl)cc2)cc1 | > 100 µM (inactive) | > 100 µM (inactive) | > 100 µM (inactive) | > 100 µM (inactive) | > 100 µM (inactive) | > 100 µM (inactive) | > 100 µM (inactive) | > 100 µM (inactive) | > 100 µM (inactive) | > 100 µM (inactive) | > 100 µM (inactive) |  | > 100 µM (inactive) | > 100 µM (inactive) | > 100 µM (inactive) | > 100 µM (inactive) | > 100 µM (inactive) | > 100 µM (inactive) | > 100 µM (inactive) | > 100 µM (inactive) |
